Source: patent publication US20240053346A1, “FLUORESCENT DYE AND METHOD FOR DETECTING TUMOR CELLS” (NATIONAL UNIVERSITY CORPORATION EHIME UNIVERSITY, priority 2020, published 2024)
Like-named read-outs stand apart in the source and are kept apart here.

Legend:
[1] = system: melanoma lesion tissue of the skin; assay: Test Example 3: staining with various SC compounds, two-photon microscopy; conditions: for imaging performance for fluorescence observation (rank): cleared melanoma lesion tissue
Description: (§1) The staining solution of Test Examples 1 and 2 was prepared by dissolving PK in DMSO at 1 mg/mL. Each of staining solutions of Test Example 3 and Test Example 4 was a DMSO solution containing 1 mM of an SC compound, and was diluted 100 times for use of staining.
(§2) As the skin normal part tissue, the extramammary Paget's disease lesion tissue, and the melanoma lesion tissue used in Test Examples, whole tissue sections of the tissues obtained by excision were used. A dermatologist has confirmed in advance the identification of each tissue. Also, a normal part tissue and a tumor tissue of the rectum were also prepared by whole-sectioning of the tissues obtained by excision, and a specialist has confirmed the identification of each tissue. The collection and use of the tumor tissues were approved by the Clinical Research Ethics Review Board at Ehime University Hospital (No. 1802009) and were conducted according to its study protocol.
(§3) For microscopy, a two-photon microscope AIR MP+(NIKON) was used. In the measurement, a 960 nm laser light source and a 495 nm filter were used for PK, and a 561 nm filter was used for PI. Scanning was performed to a depth of 100 μm of the sample. The three-dimensional reconstructed image is obtained by processing the obtained data with the software included.
(§4) Normal part tissue of the skin and extramammary Paget's disease lesion tissue cleared by LUCID method in the same manner as in Test Example 2 were stained with a staining solution containing PK, PC, Nile Red, or POLARIC. Each stained tissue section was observed according to the method of two-photon microscopy of Test Example 1. The images were produced by coloring a fluorescent wavelength of 492 nm or less in cyan, 500 to 550 nm in green, 560 to 593 nm in yellow, and 593 nm or more in red. Brightness and contrast of the illustrated images were appropriately corrected.
Melanoma lesion tissue of the skin cleared by the same method were similarly stained and observed with a two-photon microscope.

[2] = system: extramammary Paget's disease lesion tissue; assay: as above; conditions: cleared Paget's disease lesion tissue; for imaging performance for fluorescence observation (rank): judged by fluorescence intensity and contrast of staining
Description: as §1, §2, §3, §4

[3] = system: extramammary Paget's disease lesion tissue, tumor cells (Paget cells); assay: Test Example 1: PK staining of thin sliced section, two-photon microscopy
Description: as §1, §2
The extramammary Paget's disease lesion tissue and the normal part tissue were embedded in paraffin and then cut out to prepare tissue sections. The preparation of the sections (thickness: 5 μm) was performed by the procedure usually performed in histopathological examination. For staining with the PK staining solution, deparaffinization was performed by a conventional method, and then staining was performed by immersion in the PK staining solution at room temperature for several days to one week. In practice, the tissues were sufficiently stained by immersion in the PK staining solution at room temperature for 2 to 3 days.
as §3

[4] = system: extramammary Paget's disease lesion tissue (Paget cells); assay: Test Example 2: PK staining of cleared three-dimensional tissue, two-photon microscopy
Description: as §1, §2, §3
(§5) Derived extramammary Paget's disease lesion tissue having a thickness of 500 μm and malignant melanoma lesion tissue having a thickness of 100 μm were subjected to a clearing treatment without being subjected to fixation and thinly slicing, and then stained with PK and propidium iodide (PI). Clearing treatment was performed by using LUCID method, according to the procedure described in Sawada K, Kawakami R, Shigemoto R, and Nemoto T. Eur. J. Neurosci., 2018, Vol. 47, No. 9, 1033-1042. The cleared tissue was stained with a PK staining as in Test Example 1. PI staining was performed by a method usually performed in tissue staining. As conditions for microscopy, the same conditions as in Test Example 1 were used for detection of PK signals.

[5] = system: malignant melanoma lesion tissue (melanoma cells); assay: as above; conditions: cleared tissue 100 μm thick, LUCID method, 495 nm
Description: as §1, §2, §3, §5

[6] = system: normal rectal mucosal epithelium (columnar epithelium); assay: Test Example 4: PK and Hoechst staining of rectum, two-photon microscopy; conditions: cleared by LUCID method, co-stained with Hoechst
Description: The staining solution of Test Examples 1 and 2 was prepared by dissolving PK in DMSO at 1 mg/mL. […]
as §2, §3
The normal part tissue and the well-differentiated adenocarcinoma lesion tissue of the rectum cleared by LUCID method in the same manner as in Test Example 2 were stained with PK and Hoechst. […]

[7] = cited from earlier work
[8] = system: well-differentiated adenocarcinoma lesion tissue of the rectum; assay: Test Example 4: PK and Hoechst staining of rectum, two-photon microscopy; conditions: cleared by LUCID method, co-stained with Hoechst
Description: as §1, §2
For microscopy, a two-photon microscope AIR MP+(NIKON) was used. In the measurement, a 960 nm laser light source and a 495 nm filter were used for PK, and a 561 nm filter was used for PI. Scanning was performed to a depth of 100 μm of the sample. The three-dimensional reconstructed image is obtained by processing the obtained data with the software included. […]

[9] = Measurement of photophysical properties of PC in organic solvent and phosphate buffer (absorption spectrum, fluorescence spectrum, fluorescence quantum yield); assay type: physicochemical; conditions: 20 mM phosphate buffer (pH 7.4) at 25° C.
[10] = 5 μm paraffin section, 960 nm laser, 495 nm filter

Structure (SMILES) | shift of the fluorescence wavelength due to solvatochromism ([1]; Test Example 3 stained tissue) | imaging performance for fluorescence observation (rank) [1] | fluorescence intensity of the raw image [2] | imaging performance for fluorescence observation (rank) [2] | distinction of tumor cells from normal cells [3, 10] | fluorescence signal in the parts where the tumor cells (Paget cells) exist [3, 10] | distribution of the dye in cells ([3]; thin sliced section) | detection of tumor cells (Paget cells) ([4]; cleared tissue 500 μm thick, LUCID method, 495 nm) | signals in normal cells of the epidermis, dermis, and hair follicle ([4]; normal cells within the observed lesion tissues of Test Example 2) | fluorescence signal in malignant melanoma cells [5] | staining of normal rectal mucosal epithelium [6] | absorption maximum wavelength ([7]; 20 mM phosphate buffer (pH 7.4) at room temperature) | fluorescence maximum wavelength λDMSO ([7]; DMSO) | fluorescence maximum wavelength λMet ([7]; methanol) | fluorescence maximum wavelength λHep ([7]; n-heptane) | fluorescence maximum wavelength ΔTol ([7]; toluene) | staining of rectal tumor lesion [8] | absorption maximum wavelength [9] | fluorescence maximum wavelength [9]
CCN(CC)c1ccc2nc3c4ccccc4c(=O)cc-3oc2c1 [Nile Red] | relatively small | followed by PK, POLARIC, and Nile Red in this order | lower than those of PK and PC | followed by PK, Nile Red, and POLARIC in this order |  |  |  |  |  |  |  |  |  |  |  |  |  |  | 
CC(=O)c1ccc2ccc3c(N4CCCCC4)ccc4ccc1c2c43 [PK, 1-Acetyl-6-piperidylpyrene] |  | followed by PK, POLARIC, and Nile Red in this order |  | followed by PK, Nile Red, and POLARIC in this order | tumor cells can be distinguished from normal cells | the fluorescence wavelength shifted and the signal level decreased | inserted into cell membranes | successfully detected even when they were scattered one by one | significantly observed in all of these cells | not observed | cell membranes were positive for PK staining, cytoplasm was poorly stained | 407 nm | 558 nm | 593 nm | 474 nm | 503 nm | cytoplasmic staining property by PK staining was high |  | 
CCCC(=O)/C=C/c1ccc2ccc3c(N4CCCCC4)ccc4ccc1c2c43 [compound A, (E)-1-(6-(piperidin-1-yl)pyren-1-yl)hexa-1-en-3-one] |  | best performance |  | best performance |  |  |  |  |  |  |  |  |  |  |  |  |  | 421 nm | 621 nm
